Results: patent US7585839B2, “Medical uses of intercellular communication facilitating compounds” (Zealand Pharma A/S, priority 2001, dated 2009)

Tests used:
[1] = test system: phosphoinositol turnover in neonatal rat cardiomyocytes; experiment: Phosphoinositol turnover in primary cardiomyocyte cultures; type: cell-based; conditions: 100 nM + noradrenaline 300 nM
Protocol: Neonatal Wistar rats (1-2 days old) are used. Hank's calcium- and magnesium-free balanced salt solution, buffered with 10 mM HEPES is used for washing during cell separation procedures. The hearts are excised, the ventricles isolated and the tissue cut into small pieces. The myocardial cells are isolated by stepwise enzymatic degradation with collagenase 0.05%, as described by ^[35]. After repeated rounds of centrifugation and washing, the precipitated cells are resuspended in culture medium M199 with Earle's salt, 10% NCS, penicillin (75 U/mL), and streptomycin (75 U/mL) and pre-plated in a Petri dish for 90 minutes. The non-adherent cells are collected in the culture medium and plated in multidishes at 2.5*10^5 cells/well. The cultures are kept in a water-saturated CO2-incubator at 37° C. The cardiomyocyte cultures are used for analyses after 6-7 days.
Cardiomyocyte cultures are incubated for 48 hours in culture medium containing 4 μCi/mL myo-[2-^3H]inositol to label the inositol phospholipids. On the day of analysis the medium is replaced by a buffer solution containing lithium and incubated at 37° C., as described by Meier et al.^[36]. After at least five minutes this buffer is replaced by the same volume of buffer containing test compound and incubated for exactly 20 minutes. The reaction is stopped by rapid replacement of the buffer by ice cold 4% v/v perchloric acid (PCA) and incubation for at least 20 minutes at 0° C. The PCA-extract is neutralised and the [^3H]inositol phosphates are separated by anion-exchange chromatography using Amprep™ columns containing 100 mg SAX Quaternary amine. The [^3H]inositol mono-phosphates are eluted and radioactivity in the fraction measured by liquid scintillation counting.
Before adding test substances to the cultures, the cells are depleted of glucose and oxygen by incubating them in a N2-atmosphere in glucose-free lithium-buffer for 10 minutes at 37° C. Control cells are incubated likewise only at normal atmospheric conditions and in a buffer containing glucose.

[2] = test system: calcium-induced arrythmias; experiment: Calcium-induced arrhythmia model in mice (CaCl2-induced 2nd degree AV-block); type: in vivo; conditions: mouse, in vivo
Protocol: The antiarrhythmic effects of compounds of this invention were tested in an in vivo model of calcium-induced arrythmias according to the model of Lynch et al.^[37]. […]. Commercial solutions of hypnorm and midazolam were diluted 1:1 in distilled water and one part diluted Hypnorm® is mixed with one part diluted midazolam.
The anaesthesia was induced by s.c. administration in a dose of 0.05-0.075 μl/10 gram mouse. An i.v. cannula was inserted into the tail vein. The lead II ECG signal was recorded continuously by positioning of a stainless steel ECG electrodes on the right forelimb and on the left hind limb. The ground electrode was placed on the right hind limb. The signal was amplified (×5.000-10.000) and filtered (0.1-150 Hz) via a Hugo Sachs Electronic model 689 ECG module. The analogue signal was digitised via a 12 bit data acquisition board (Data Translation model DT321) and sampled at 1000 Hz using the Notocord HEM 3.1 software for Windows NT. After a 10-min equilibration period, the test sample of drug was injected into the tail vein. Mice pre-treated with vehicle were tested as a measure of the control level in untreated animals. The injection volume was 100 μl in all experiments. Infusion of CaCl2 (30 mg/ml, 0.1 ml/min≈100 mg/kg/min (calciumchlorid-2-hydrat, Riedel-de Haën, Germany)) was started 3 min after i.v. administration of drug or vehicle.
The time lag to onset of 2nd degree AV-block was determined as the time from the start of CaCl2 infusion until the first arrhythmic event occured. An event of 2nd degree AV-block was defined as intermittent failure of the AV conduction characterised by a P-wave without the concomitant QRS complex.
Responses were expressed relative to the time until 2nd degree AV-block occurred in vehicle treated mice.

human osteoblastic cells = experiment: Intercellular calcium waves after mechanical stimulation, human osteoblastic cells; type: cell-based
Protocol: (§1) Human osteblast cells (hOB): Cells were isolated from human bone marrow obtained by puncture of the posterior iliac spine of healthy volunteers (aged 20-36): 10-15 ml marrow material was collected in 15 ml PBS+Ca,Mg (Life Technologies, Cat.No. 14040) with 100 U/ml Heparin (Sigma, Cat.No. H-3149). The mononuclear fraction of the marrow was isolated on a Lymphoprep gradient (Nycomed Pharma, Cat.No. 1001967), by centrifugation at 2200 rpm for 30 min. After harvesting, the mononuclear fraction was washed once with culture medium and centrifuged at 1800 rpm for 10 min. Subsequently cells were counted and plated in culture medium at 8×10^6 cells/100 mm dish. hOB medium (all reagents obtained from Life Technologies): MEM w/o Phenol Red w/Glutamax (Cat.No. 041-93013) supplemented with 10% heat inactivated fetal calf serum (Cat.No. 10106) and 0.1% Penicillin/Streptomycin (Cat.No. 15140). Medium was changed the following day and the cells were cultured at 37° C. in 5% CO2 with medium change every 7 days. After 3-4 weeks of culture the cells had reached 70% confluence. The medium was then supplemented with 100 nM Dexamethasone (Sigma, Cat.No. D-4902) for 7 days. Cells were then plated for video imaging experiments: a 25 mm #1 glass coverslip was placed in a 35 mm dish (or each well of a 6-well multidish), cells were plated at 2.5×10^5 cells/coverslip and cultured for 2-3 days before use. […]

human osteoblast = experiment: Lucifer Yellow microinjection dye transfer, human osteoblasts; type: cell-based; conditions: 48 hours hypoxia 3-6% O2; 10 minutes incubation; 7 cells before
Protocol: as §1

Substance: Ac-D-Tyr-D-Pro-D-4Hyp-Gly-D-Ala-Gly-NH2 [Compound 2]
- increase in phospho-inositol turnover above the increase effected by noradrenaline alone ([1]; anoxia and glucose deprivation): about 70%
- effect on noradrenaline induced increase in phospho-inositol turnover ([1]; control conditions): no further effect
- CaCl2 mice In vivo, % [2]: 65 +/− 7%
- average number of cells in the calcium wave (human osteoblastic cells; after ATP desensitization, 10^−8 mol/l, 10 minutes, 4.5 cells before): 6.2 cells
- average number of cells in the calcium wave (human osteoblastic cells; medium without glucose, 10^−8 M, 1.4 cells before): 2.9 cells
- dye transfer, number of cells (human osteoblast): 9 cells
